Results reported in patent publication US5859188A, “Method for discovering novel anthelmintic compounds” (priority 1997, dated 1999).
Ends that are not written are not given here. Peptide text beside a SMILES is read from it. * marks the point of attachment. X1 = CC(C)C[C@@H](CN[C@@H](CCCNC(=N)N)C(=O)N[C@@H](Cc1ccccc1)C(N)=O)N*

Experiments:
A. suum muscle strips = conditions: cited from earlier work; for Threshold Concentration: lowest tested concentration that detectably altered tension and/or contractile activity in at least half the strips; for Threshold Concentration (ND class): highest concentration 10 μM
Ascaris suum tissues = conditions: tritium on leucine moiety; cited from earlier work
[1] = system: innervated Ascaris suum muscle preparation; test: Potency evaluation bioassay: muscle tension and contractile frequency of innervated Ascaris suum muscle preparation; conditions: for Tension: 1 nM peptide, mean
Procedure: AF2 and iodinated AF2 were evaluated in a bioassay using an innervated Ascaris suum muscle preparation and potency was estimated by measuring the physiological effects of the peptides on A. suum muscle tension and contractile frequency.
An adult female was bisected transversely just anterior to the oviduct. A 2 cm segment was obtained anterior from the initial cut and that section was placed immediately under 37° C. medium in a dissection chamber. Two muscle strips were then prepared from each segment. Strips were prepared by cutting the segment longitudinally along one lateral line, removing the gut and then severing the opposite lateral line. Steel wires, 4 cm long, 0.25 mm diameter, with terminal sharpened hooks, were inserted through the muscle strip approximately 3 mm and centered from each end. These hooks were used to suspend the muscle strip between an isometric force transducer and a stationary holdfast in a 37° C. water jacketed incubation chamber filled with suppressive Ascaris Ringer's Solution constantly bubbled with N2. The transducer was connected to a Gould chart recorder via a Gould Universal amplifier.
The muscle tension on each preparation was "normalized" to zero five minutes before the addition of a test compound or vehicle. Compounds or vehicles were introduced from stock solutions and assayed at a final concentration of 1 nM in replicate (n=6). […] Inhibition is manifested as a drop in baseline tension (compared to control), while excitation is defined as a marked rise in baseline tension, often superimposed with transient muscle contractions (spiking). In order to estimate the net change in muscle tension of these preparations, the midpoint of the spike was estimated visually. Muscle tension data were analyzed by analysis of variance.

[2] = system: receptor preparation (membrane fraction of Ascaris suum body wall muscle), AF2 binding sites; test: Displacement of radioactive AF2 ([125I]AF2) in a receptor binding assay
Procedure: Adult female Ascaris suum, swine intestinal parasites, are collected in an abattoir after their removal from the intestine using pressurized water. Healthy specimens over 25 cm are selected, rinsed and placed in Ascaris Ringer's Solution (ARS: 4 mM NaCl, 5.9 mM CaCl2, 4.9 mM MgCl2, 5 mM Tris (C4 H11 NO3), 125 mM NaC2 H3 O2, 24.5 mM KCl, pH=7.4) at 37° C. Specimens are placed in a thermos filled with 37C Ascaris Ringer's solution and immediately air shipped to our laboratory. Upon arrival they are placed in fresh ARS (changed daily) and maintained at 37° C. for up to 3-4 days prior to use.
Ascaris suum body wall tissue (muscle) is dissected out by pinning each specimen in a dissection tray, opening the worm along its entire length at the lateral line with a scalpel, removing the intestine and ovaries and then scraping the muscle from the cuticle. One worm yields approximately 1.0 g tissue. Tissue collected is flash frozen in liquid nitrogen and stored at -80° C. until needed.
Membrane suspension for the binding assay is prepared as follows. […]
Each replicate is one well of a standard 96-well plate and has a volume of 200 μl containing 15 ug protein (preparation described above). […] The plate is shaken on a rotary shaker for 2 hours and then counted on a Top Count® scintillation counter. […]

Row | Molecule | Threshold Concentration (A. suum muscle strips) [µM] | Threshold Concentration (ND class) (A. suum muscle strips) | further results
1 | KNAFIRF-NH2 | 0.1 | – | –
2 | NEFIRF-NH2 | – | ND ("ND" means no detectable effect at 10 μM) | –
3 | KNEFARF-NH2 | 10 | – | –
4 | KNEYIRF-NH2 | 3.2 | – | –
5 | KAEFIRF-NH2 | – | ND ("ND" means no detectable effect at 10 μM) | –
6 | KNEAIRF-NH2 | 3.2 | – | –
7 | FIRFamide | – | ND ("ND" means no detectable effect at 10 μM) | –
8 | KNEFIRA-NH2 | – | ND ("ND" means no detectable effect at 10 μM) | –
9 | [^3 H]PF1: PF1 (Ser-Asp-Pro-Asn-Phe-Leu-Arg-Phe-NH2 ; SDPNFLRFamide) radiolabelled by exchanging a tritium atom for a hydrogen on the leucine moiety (SDPNFLRF-NH2; also: tritium label on Leu6) | – | – | specific binding (Ascaris suum tissues): 40%
10 | Lys-His-Glu-Tyr^--I -Leu-Arg-Phe-amide [Iodo AF2] | – | – | type of response of muscle tension ([1]; 1 nM): biphasic responses (short term inhibition followed by long term excitation); Tension ([1]; 5 min after peptide addition): -430 mg; Tension ([1]; 15 min after peptide addition): -403 mg; Tension ([1]; 30 min after peptide addition): -237 mg; Tension ([1]; 60 min after peptide addition): -437 mg; Spike amplitude ([1]; 1 nM, FIG. 1): significant increase; specific binding ([2]; radioligand in current embodiment of binding assay): > 80%
11 | ANEFIRF-NH2 | – | ND ("ND" means no detectable effect at 10 μM) | –
12 | CC(C)C[C@@H](CN[C@@H](CCCNC(=N)N)C(=O)N[C@@H](Cc1ccccc1)C(N)=O)NC(=O)[C@H](Cc1ccc(O)cc1)NC(=O)[C@H](CCC(=O)O)NC(=O)[C@H](Cc1c[nH]cn1)NC(=O)[C@@H](N)CCCCN [KHEYL*RFamide (reduced bond), KHEYL*RFamide] (H-KHEY-X1) | – | – | IC50 ([2]; displacement of radioactive AF2): 20 nM
13 | KNEFIAF-NH2 | 10 | – | –
